According to patent publication US20200360341A1, “INDOMETHACIN MENTHYL ESTER-BASED PHARMACEUTICAL COMPOSITIONS AND THEIR USE AS ANTI-INFLAMMATORY AGENTS” (OBSHESTVO S OGRANICHENNOI OTVETSTVENNOSTJU "FORBOS”, priority 2017, published 2020):

Columns and labels:
[1] = system: adjuvant-induced rheumatoid arthritis; experiment: Adjuvant-induced rheumatoid arthritis, tactile reactivity threshold (von Frey hairs); format: in vivo, rats
Method: (§1) Anti-inflammatory and analgesic activity of MEI-based pharmaceutical composition after oral administration was studied in a model of chronic inflammation—adjuvant-induced rheumatoid arthritis in rats. To induce arthritis the rats were administered 100 mcl of complete Freund adjuvant (CFA), supplied by Sigma Aldrich, into the plantar surface of right hind paw. The control (intact) group 1 has received 100 mcl of saline. After CFA injection, local inflammation develops in a few hours, with subsequent pathologic changes in metacarpophalangeal joints and distal interphalangeal joints. Test compound (composition 3—MEI solution) and the reference drug (indomethacin) were administered once daily orally for 22 days, starting from 7th day after pathology induction. Test compound was administered in 6.25, 12.5 and 25 mg/kg doses. […] To assess the anti-inflammatory action of MEI in animals by pelthysmography, inflammation severity was measured as the difference between the masses of control and test paws, expressed in ml. Analgesic activity of MEI in animals was assessed by tactile reactivity threshold using the method of Chaplan et al. using the kit of 8 standard von Frey hairs (Stoelting, USA).

serotonin-induced edema = experiment: Serotonin-induced paw edema (acute inflammation); format: in vivo, rats (Sprague Dawley); conditions: oral; for Inflammation inhibition index: 2 h before serotonin, 30 min after serotonin, n = 8
Method: Anti-inflammatory activity of MEI-based pharmaceutical compositions compared to MEI substance (as a suspension in starch solution) and indomethacin after oral administration was studied in a model of acute inflammation-paw edema induced by inflammation mediator serotonin. Rats of Sprague Dawley stock were used. […] Test compounds were administered orally 2 hours before the serotonin administration. […] Inflammation severity was measured by plethyosmography as the difference between the masses of control and test paws, expressed in ml. Anti-inflammatory activity of the test compounds was assessed by the inhibition index, calculated using the following formula: II=(([…])×100%, where II-inflammation inhibition index in %; Set-severity of inflammation in the control group, ml; St-severity of inflammation in the test group, ml.

[2] = system: adjuvant-induced rheumatoid arthritis; experiment: Adjuvant-induced rheumatoid arthritis, inflammation severity by plethysmography; format: in vivo
Method: as §1

yeast-induced fever = experiment: Yeast-induced fever (antipyretic activity); format: in vivo, rats (Sprague Dawley); conditions: n = 6
Method: Antipyretic activity of MEI-based pharmaceutical composition was studied in a model of yeast-induced fever in rats. Rats of Sprague Dawley stock were used. Fever was induced in rats by subcutaneous administration of baker's yeast suspension in 2000 mg/kg dose (calculated for dry yeast basis) in 2 ml volume into the animal withers 18 hours before test compound administration. Animal body temperature was measured using an electronic rectal thermometer (MLT1403 Rectal Temperature Probe and PowerLab 4/35 4-channel registration system module, ADlnstruments PtyLtd, Australia). Temperature was measured before yeast administration and 18 h after yeast administration. Afterwards the animals were administered the test compound, MEI-based pharmaceutical composition (composition 3—MEI solution, produced as described in Example 3) in 25, 50 and 100 mg/kg doses. Indomethacin in 10 mg/kg dose was used as a reference drug. Animals in control group have received the vehicle. Temperature was measured 2 and 4 hours after test compound administration.

[3] = Pharmacokinetics: indomethacin in blood plasma after oral administration; format: in vivo, rats (Sprague Dawley); conditions: 25 mg/kg
Method: Pharmacokinetic properties of two MEI-based compositions were studied: composition 1 (liposome-encapsulated MEI), produced as described in example 1, and composition 3 (MEI solution), produced as described in example 3. MEI substance (as a suspension in starch solution) and indomethacin were used as reference drugs. Rats of Sprague Dawley stock were used. All test compounds were administered orally to rats in 25 mg/kg dose. Animal blood was sampled at certain time points (0; 0.25; 0.5; 1, 2, 4, 8, 16 and 24 hours) for analysis. Indomethacin content in animal blood plasma was determined using high-performance liquid chromatography (HPLC) method.

gastric mucosa = experiment: Ulcerogenic action on gastric mucosa after fourfold oral administration; format: in vivo, rats; conditions: for Average score (ulcerogenic action) / Average number of erosions / Average number of ulcers: 4 times orally; for Average score (ulcerogenic action): scale 0 (no damage) to 4 (gross damage); for Average number of erosions / Average number of ulcers: stomach 3 h after last administration
Method: Ulcerogenic action was measured using the following 4-point scale: 0—no damage; 0.5—slight hyperemia of gastric mucosa; 1—weak localized damage of gastric mucosa (single point bleeding, severe hyperemia); 2—weak distributed damage of gastric mucosa (small ulcers, erosions, multiple bleeding); 3—severe and distributed damage of gastric mucosa (erosions, ulcers, bleeding); 4—gross damage of the whole stomach (massive bleeding, erosion, ulcers, perforation).

[4] = rats, oral administration; cited from earlier work
[5] = system: carrageenan-induced edema; experiment: Carrageenan-induced edema, intraperitoneal administration; format: in vivo, rats (Sprague Dawley); conditions: after 4 h
Method: Anti-inflammatory activity of MEI-based pharmaceutical composition after parenteral administration was studied in a model of carrageenan-induced edema. Rats of Sprague Dawley stock were used. 50 mcl of saline (“sodium chloride 0.9% solution for infusion”, NPK ESCOM, Russia) was injected intraplantarly into one hind paw (control paw), while 50 mcl of 1% λ-carrageenan solution was injected into another paw.
Inflammation severity was measured after 4 h using a plethysmometer (IITC Life Science, USA). Inflammation severity was measured by plethyosmography as the difference between the masses of control and test paws, expressed in ml. Test compound, pharmaceutical composition […] (MEI solution) was administered parenterally (intraperitoneally) 1 hour before λ-carrageenan administration, animals receiving the same amount of the vehicle were used as control. The animals were deprived of food 24 h before the study, water access was not limited.

[6] = 1 mg/kg oral once daily from day 7, day 21
[7] = 1 mg/kg oral once daily from day 7, day 28
[8] = 1 mg/kg oral once daily, day 7 (before test compound administration)
[9] = composition 3 (MEI solution) 6.25 mg/kg oral once daily from day 7, day 21
[10] = composition 3 (MEI solution) 6.25 mg/kg oral once daily from day 7, day 28
[11] = composition 3 (MEI solution) 6.25 mg/kg oral once daily, day 7 (before test compound administration)
[12] = composition 3 (MEI solution) 12.5 mg/kg oral once daily from day 7, day 21
[13] = composition 3 (MEI solution) 12.5 mg/kg oral once daily from day 7, day 28
[14] = composition 3 (MEI solution) 12.5 mg/kg oral once daily, day 7 (before test compound administration)
[15] = composition 3 (MEI solution) 25 mg/kg oral once daily from day 7, day 21
[16] = composition 3 (MEI solution) 25 mg/kg oral once daily from day 7, day 28
[17] = composition 3 (MEI solution) 25 mg/kg oral once daily, day 7 (before test compound administration)
[18] = composition 3 (MEI solution) 25 mg/kg oral
[19] = composition 3 (MEI solution) 50 mg/kg oral
[20] = composition 3 (MEI solution) 100 mg/kg oral
[21] = MEI-based composition 100 mg/kg

SMILES: COc1ccc2c(c1)c(CC(=O)O)c(C)n2C(=O)c1ccc(Cl)cc1 [Indomethacin, 1-(4-chlorobenzoyl)-5-methoxy-2-methyl-1H-indole-3-acetic acid]
- median-effective tactile reactivity threshold in an injected limb [1, 6]: 14.5 ± 3.18 g
- median-effective tactile reactivity threshold in an injected limb [1, 7]: 16.0 ± 3.04 g
- median-effective tactile reactivity threshold in an injected limb [1, 8]: 9.9 ± 2.34 g
- Inflammation inhibition index (serotonin-induced edema; 10 mg/kg): 43.5%
- inflammation severity ([2]; 1 mg/kg oral once daily from day 7, day 14): 1.8 ± 0.24 mL
- inflammation severity [2, 6]: 1.5 ± 0.18 mL
- inflammation severity [2, 7]: 1.4 ± 0.28 mL
- inflammation severity [2, 8]: 3.0 ± 0.59 mL
- animal mortality ([2]; 5 mg/kg, oral once daily, arthritis model): animal mortality is observed
- Average body temperature 2 h after test compound administration (yeast-induced fever; 10 mg/kg): −0.98 °C
- Average body temperature 4 h after test compound administration (yeast-induced fever; 10 mg/kg): −0.85 °C
- Tmax ([3]; Sprague-Dawley, rat blood plasma, read-out: time of reaching the maximal concentration (Tmax) of indomethacin): 4 h
- Cmax ([3]; Sprague-Dawley, rat, plasma, indomethacin measured by HPLC, read-out: maximal concentration of indomethacin in rat blood plasma (Cmax)): 65.5 µg/mL
- Average score (ulcerogenic action) (gastric mucosa; 5 mg/kg): 3
- Average number of erosions (gastric mucosa; 5 mg/kg): 3.2
- Average number of ulcers (gastric mucosa; 5 mg/kg): 8
- gastric mucosa findings (gastric mucosa; four 5 mg/kg doses, oral): multiple ulcers and erosions
- LD50 [4]: less than 15 mg/kg

SMILES: COc1ccc2c(c1)c(CC(=O)OC1CC(C)CCC1C(C)C)c(C)n2C(=O)c1ccc(Cl)cc1 (stereo not shown) [MEI]
- Edema size ([5]; composition No 4 (MEI solution) 0.1 mg/kg intraperitoneally 1 h before carrageenan): 1.011 ± 0.115 mL
- Edema size, % from control ([5]; composition No 4 (MEI solution) 0.1 mg/kg intraperitoneally): 91.2 % from control
- Edema size ([5]; composition No 4 (MEI solution) 0.5 mg/kg intraperitoneally 1 h before carrageenan): 0.675 ± 0.065 mL
- Edema size, % from control ([5]; composition No 4 (MEI solution) 0.5 mg/kg intraperitoneally): 60.9 % from control
- Edema size ([5]; composition No 4 (MEI solution) 1.0 mg/kg intraperitoneally 1 h before carrageenan): 0.552 ± 0.097 mL
- Edema size, % from control ([5]; composition No 4 (MEI solution) 1.0 mg/kg intraperitoneally): 45.0 % from control
- Edema size ([5]; composition No 4 (MEI solution) 10 mg/kg intraperitoneally 1 h before carrageenan): 0.201 ± 0.176 mL
- Edema size, % from control ([5]; composition No 4 (MEI solution) 10 mg/kg intraperitoneally): 18.1 % from control
- Edema size ([5]; composition No 4 (MEI solution) 50 mg/kg intraperitoneally 1 h before carrageenan): 0.288 ± 0.152 mL
- Edema size, % from control ([5]; composition No 4 (MEI solution) 50 mg/kg intraperitoneally): 26.0 % from control
- median-effective tactile reactivity threshold in an injected limb [1, 9]: 10.4 ± 3.09 g
- median-effective tactile reactivity threshold in an injected limb [1, 10]: 9.6 ± 2.67 g
- median-effective tactile reactivity threshold in an injected limb [1, 11]: 11.7 ± 2.93 g
- median-effective tactile reactivity threshold in an injected limb [1, 12]: 13.3 ± 2.55 g
- median-effective tactile reactivity threshold in an injected limb [1, 13]: 14.8 ± 2.35 g
- median-effective tactile reactivity threshold in an injected limb [1, 14]: 11.8 ± 3.12 g
- median-effective tactile reactivity threshold in an injected limb [1, 15]: 16.6 ± 2.64 g
- median-effective tactile reactivity threshold in an injected limb [1, 16]: 18.2 ± 2.57 g
- median-effective tactile reactivity threshold in an injected limb [1, 17]: 9.8 ± 2.14 g
- anti-inflammatory effect in model of acute inflammation (serotonin-induced edema; 25 mg/kg): doesn't have significant anti-inflammatory effects
- Inflammation inhibition index (serotonin-induced edema; 25 mg/kg active agent): 4.3%
- inflammation severity ([2]; composition 3 (MEI solution) 6.25 mg/kg oral once daily from day 7, day 14): 2.5 ± 0.76 mL
- inflammation severity [2, 9]: 1.8 ± 0.49 mL
- inflammation severity [2, 10]: 1.9 ± 0.51 mL
- inflammation severity [2, 11]: 2.8 ± 0.54 mL
- inflammation severity ([2]; composition 3 (MEI solution) 12.5 mg/kg oral once daily from day 7, day 14): 1.9 ± 0.37 mL
- inflammation severity [2, 12]: 2.0 ± 0.40 mL
- inflammation severity [2, 13]: 1.1 ± 0.21 mL
- inflammation severity [2, 14]: 2.6 ± 0.38 mL
- inflammation severity ([2]; composition 3 (MEI solution) 25 mg/kg oral once daily from day 7, day 14): 1.5 ± 0.22 mL
- inflammation severity [2, 15]: 0.9 ± 0.07 mL
- inflammation severity [2, 16]: 0.8 ± 0.12 mL
- inflammation severity [2, 17]: 2.4 ± 0.43 mL
- Average body temperature 2 h after test compound administration (yeast-induced fever; [18]): −0.53 °C
- Average body temperature 4 h after test compound administration (yeast-induced fever; [18]): −0.45 °C
- Average body temperature 2 h after test compound administration (yeast-induced fever; [19]): −0.93 °C
- Average body temperature 4 h after test compound administration (yeast-induced fever; [19]): −0.82 °C
- Average body temperature 2 h after test compound administration (yeast-induced fever; [20]): −0.78 °C
- Average body temperature 4 h after test compound administration (yeast-induced fever; [20]): −0.68 °C
- indomethacin concentration in blood plasma ([3]; suspension in starch solution, any time point 0-24 h): below the detection limit
- Average score (ulcerogenic action) (gastric mucosa; MEI-based composition 25 mg/kg): 0
- Average number of erosions (gastric mucosa; MEI-based composition 25 mg/kg): 0
- Average number of ulcers (gastric mucosa; MEI-based composition 25 mg/kg): 0
- Average score (ulcerogenic action) (gastric mucosa; MEI-based composition 50 mg/kg): 0
- Average number of erosions (gastric mucosa; MEI-based composition 50 mg/kg): 0
- Average number of ulcers (gastric mucosa; MEI-based composition 50 mg/kg): 0
- Average score (ulcerogenic action) (gastric mucosa; [21]): 0.4
- Average number of erosions (gastric mucosa; [21]): 0
- Average number of ulcers (gastric mucosa; [21]): 0.8
